Assay results as given in US9073892B2, “Indazolyl triazol derivatives” (Merck Serono S.A., priority 2010, dated 2015).
Where a name gives a salt, the structure may show the parent alone.

These compounds were tested on T1, IRAK1/4 human (assay: IRAK1/4 phosphorylation IC50 (enzymatic assay, table 2)). Details: human IRAK1/4 phosphorylation.
T1 construct: fused on or other part: His tag and TEV cleavage site at the N-terminus
Assay type: biochemical
Method in brief: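 Human IRAK-1 or IRAK-4, each carrying a His-TEV tag, was incubated with ATP and compounds in DMSO ranging from 20 µM to 1 nM in 384-well plates, and IRAK-4 reactions also contained STK1-biotin peptide. Reactions ran in 50 mM Hepes pH7.0 with MgCl2, DTT, EGTA and BSA for 2 or 3 hours, with 2% DMSO controls. Inhibition is given as IC50.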

SMILES	IC50 [nM]
c1ccc2c(-c3cn(-c4ccc([C@@H]5C[C@H]6CC[C@@H](C5)N6C5CCCCC5)cc4)nn3)n[nH]c2c1 (single isomer, unassigned) [Example 151, 3-(1-{4-[(3-exo)-8-cyclohexyl-8-azabicyclo[3.2.1]oct-3-yl]phenyl}-1H-1,2,3-triazol-4-yl)-1H-indazole]	< 100
c1ccc2c(-c3cn(-c4ccc([C@H]5C[C@H]6CC[C@@H](C5)N6C5CCCCC5)cc4)nn3)n[nH]c2c1 (single isomer, unassigned) [Example 152, 3-(1-{4-[(3-endo)-8-cyclohexyl-8-azabicyclo[3.2.1]oct-3-yl]phenyl}-1H-1,2,3-triazol-4-yl)-1H-indazole]	100 to 1000
NCc1ccc(-n2cc(-c3n[nH]c4ccccc34)nn2)cc1 [Example 12, 1-{4-[4-(1H-indazol-3-yl)-1H-1,2,3-triazol-1-yl]phenyl}methanamine]	1000 to 5000
O=C(NCc1ccc(-n2cc(-c3n[nH]c4ccccc34)nn2)cc1)C1CCCC1 [Example 13, N-{4-[4-(1H-indazol-3-yl)-1H-1,2,3-triazol-1-yl]benzyl}cyclopentanecarboxamide]	1000 to 5000
O=C(CN1CCOCC1)NCc1ccc(-n2cc(-c3n[nH]c4ccccc34)nn2)cc1 [Example 16, N-{4-[4-(1H-indazol-3-yl)-1H-1,2,3-triazol-1-yl]benzyl}-2-morpholin-4-ylacetamide]	1000 to 5000
O=C(NCc1ccc(-n2cc(-c3n[nH]c4ccccc34)nn2)cc1)C1CCOCC1 [Example 17, N-{4-[4-(1H-indazol-3-yl)-1H-1,2,3-triazol-1-yl]benzyl}tetrahydro-2H-pyran-4-carboxamide]	1000 to 5000
O=C(Cc1ccc(-n2cc(-c3n[nH]c4ccccc34)nn2)cc1)N1CCOCC1 [Example 18, 3-{1-[4-(2-morpholin-4-yl-2-oxoethyl)phenyl]-1H-1,2,3-triazol-4-yl}-1H-indazole]	100 to 1000
c1ccc2c(-c3cn(-c4ccc(N5CCOCC5)nc4)nn3)n[nH]c2c1 [Example 20, 3-[1-(6-morpholin-4-ylpyridin-3-yl)-1H-1,2,3-triazol-4-yl]-1H-indazole]	1000 to 5000
CN1CCN(C(=O)CCc2ccc(-n3cc(-c4n[nH]c5ccccc45)nn3)cc2)CC1 [Example 24, 3-(1-{4-[3-(4-methylpiperazin-1-yl)-3-oxopropyl]phenyl}-1H-1,2,3-triazol-4-yl)-1H-indazole]	1000 to 5000
CS(=O)(=O)N1CCN(C(=O)c2ccc(-n3cc(-c4n[nH]c5ccccc45)nn3)cc2)CC1 [Example 41, 3-[1-(4-{[4-(methylsulfonyl)piperazin-1-yl]carbonyl}phenyl)-1H-1,2,3-triazol-4-yl]-1H-indazole]	100 to 1000
O=C(NCC1CCCO1)c1ccc(-n2cc(-c3n[nH]c4ccccc34)nn2)cc1 (stereo not shown) [Example 45, 4-[4-(1H-indazol-3-yl)-1H-1,2,3-triazol-1-yl]-N-(tetrahydrofuran-2-ylmethyl)benzamide]	100 to 1000
CCN(CC)CCNC(=O)c1ccc(-n2cc(-c3n[nH]c4ccccc34)nn2)cc1 [Example 46, N-[2-(diethylamino)ethyl]-4-[4-(1H-indazol-3-yl)-1H-1,2,3-triazol-1-yl]benzamide]	100 to 1000
CCN1CCCC1CNC(=O)c1ccc(-n2cc(-c3n[nH]c4ccccc34)nn2)cc1 (stereo not shown) [Example 47, N-[(1-ethylpyrrolidin-2-yl)methyl]-4-[4-(1H-indazol-3-yl)-1H-1,2,3-triazol-1-yl]benzamide]	100 to 1000
CC1CCCCN1CCCNC(=O)c1ccc(-n2cc(-c3n[nH]c4ccccc34)nn2)cc1 (stereo not shown) [Example 56]	100 to 1000
N#CCCN1CCN(C(=O)c2ccc(-n3cc(-c4n[nH]c5ccccc45)nn3)cc2)CC1 [Example 57, 3-(4-(4-[4-(1H-indazol-3-yl)-1H-1,2,3-triazol-1-yl]benzoyl}piperazin-1-yl)propanenitrile]	100 to 1000
O=C(NCCCN1CCOCC1)c1cccc(-n2cc(-c3n[nH]c4ccccc34)nn2)c1 [Example 58, 3-[4-(1H-indazol-3-yl)-1H-1,2,3-triazol-1-yl]-N-(3-morpholin-4-ylpropyl)benzamide]	100 to 1000
CCC1CCCCN1CCCNC(=O)c1ccc(-n2cc(-c3n[nH]c4ccccc34)nn2)cc1 (stereo not shown) [Example 59, N-[3-(2-ethylpiperidin-1-yl)propyl]-4-[4-(1H-indazol-3-yl)-1H-1,2,3-triazol-1-yl]benzamide]	100 to 1000
O=C(NCCCN1CCCC1=O)c1ccc(-n2cc(-c3n[nH]c4ccccc34)nn2)cc1 [Example 61, 4-[4-(1H-indazol-3-yl)-1H-1,2,3-triazol-1-yl]-N-[3-(2-oxopyrrolidin-1-yl)propyl]benzamide]	1000 to 5000
O=C(NCc1cccc(F)c1)c1ccc(-n2cc(-c3n[nH]c4ccccc34)nn2)cc1 [Example 62, N-(3-fluorobenzyl)-4-[4-(1H-indazol-3-yl)-1H-1,2,3-triazol-1-yl]benzamide]	1000 to 5000
O=C(NCCCN1CCCCC1)c1cccc(-n2cc(-c3n[nH]c4ccccc34)nn2)c1 [Example 63, 3-[4-(1H-indazol-3-yl)-1H-1,2,3-triazol-1-yl]-N-(3-piperidin-1-ylpropyl)benzamide]	1000 to 5000

SMILES	IC50 [nM]
CN(CCNC(=O)c1cccc(-n2cc(-c3n[nH]c4ccccc34)nn2)c1)C1CCCCC1 [Example 64, N-{2-[cyclohexyl(methyl)amino]ethyl}-3-[4-(1H-indazol-3-yl)-1H-1,2,3-triazol-1-yl]benzamide]	1000 to 5000
COCCNC(=O)c1cccc(-n2cc(-c3n[nH]c4ccccc34)nn2)c1 [Example 65, 3-[4-(1H-indazol-3-yl)-1H-1,2,3-triazol-1-yl]-N-(2-methoxyethyl)benzamide]	1000 to 5000
CC(C)N1CCN(C(=O)c2cccc(-n3cc(-c4n[nH]c5ccccc45)nn3)c2)CC1 [Example 66, 3-(1-{3-[(4-isopropylpiperazin-1-yl)carbonyl]phenyl}-1H-1,2,3-triazol-4-yl)-1H-indazole]	1000 to 5000
O=C(c1cccc(-n2cc(-c3n[nH]c4ccccc34)nn2)c1)N1CCCCC1 [Example 67, 3-{1-[3-(piperidin-1-ylcarbonyl)phenyl]-1H-1,2,3-triazol-4-yl}-1H-indazole]	1000 to 5000
CC(C)NC(=O)c1cccc(-n2cc(-c3n[nH]c4ccccc34)nn2)c1 [Example 68, 3-[4-(1H-indazol-3-yl)-1H-1,2,3-triazol-1-yl]-N-isopropylbenzamide]	1000 to 5000
O=C(c1cccc(-n2cc(-c3n[nH]c4ccccc34)nn2)c1)N1CCCC(CN2CCCC2)C1 (stereo not shown) [Example 69, 3-[1-(3-{[3-(pyrrolidin-1-ylmethyl)piperidin-1-yl]carbonyl}phenyl)-1H-1,2,3-triazol-4-yl]-1H-indazole]	1000 to 5000
CN1CCN(C(=O)Cc2ccc(-n3cc(-c4n[nH]c5ccccc45)nn3)cc2)CC1 [Example 70]	100 to 1000
O=C(CCc1cccc(-n2cc(-c3n[nH]c4ccccc34)nn2)c1)N1CCCC1 [Example 87, 3-{1-[3-(3-oxo-3-pyrrolidin-1-ylpropyl)phenyl]-1H-1,2,3-triazol-4-yl}-1H-indazole]	1000 to 5000
CN1CCCC1CCNC(=O)c1ccc(-n2cc(-c3n[nH]c4ccccc34)nn2)cc1 (stereo not shown) [Example 90, 4-[4-(1H-indazol-3-yl)-1H-1,2,3-triazol-1-yl]-N-[2-(1-methylpyrrolidin-2-yl)ethyl]benzamide]	100 to 1000
O=C(c1ccc(-n2cc(-c3n[nH]c4ccccc34)nn2)c(F)c1)N1CCOCC1 [Example 102, 3-{1-[2-fluoro-4-(morpholin-4-ylcarbonyl)phenyl]-1H-1,2,3-triazol-4-yl}-1H-indazole]	1000 to 5000
O=C(c1ccc(-n2cc(-c3n[nH]c4ccccc34)nn2)cc1)N(CCO)C1CCCCC1 [Example 107, N-cyclohexyl-N-(2-hydroxyethyl)-4-[4-(1H-indazol-3-yl)-1H-1,2,3-triazol-1-yl]benzamide]	100 to 1000
CN1CCC(NC(=O)c2ccc(-n3cc(-c4n[nH]c5ccccc45)nn3)cc2)CC1 [Example 116, 4-[4-(1H-indazol-3-yl)-1H-1,2,3-triazol-1-yl]-N-(1-methylpiperidin-4-yl)benzamide]	1000 to 5000
CCC(O)CNC(=O)c1ccc(-n2cc(-c3n[nH]c4ccccc34)nn2)cc1 (stereo not shown) [Example 119, N-(2-hydroxybutyl)-4-[4-(1H-indazol-3-yl)-1H-1,2,3-triazol-1-yl]benzamide]	100 to 1000
O=C(c1ccc(-n2cc(-c3n[nH]c4ccc(Br)cc34)nn2)cc1)N1CCOCC1 [Example 122, 5-bromo-3-{1-[4-(morpholin-4-ylcarbonyl)phenyl]-1H-1,2,3-triazol-4-yl}-1H-indazole]	100 to 1000
C1=C(c2ccc(-n3cc(-c4n[nH]c5ccccc45)nn3)cc2)CCNC1 [Example 131, hydrochloride]	100 to 1000
FCCN1CCC(c2ccc(-n3cc(-c4n[nH]c5ccccc45)nn3)cc2)CC1 [Example 133, 3-(1-{4-[1-(2-fluoroethyl)piperidin-4-yl]phenyl}-1H-1,2,3-triazol-4-yl)-1H-indazole]	100 to 1000
CC(=O)N1CCC(c2ccc(-n3cc(-c4n[nH]c5ccccc45)nn3)cc2)CC1 [Example 134, 3-{1-[4-(1-acetylpiperidin-4-yl)phenyl]-1H-1,2,3-triazol-4-yl}-1H-indazole]	100 to 1000
Fc1ccc2c(-c3cn(-c4ccc(C5CCN(CCC(F)(F)F)CC5)cc4)nn3)n[nH]c2c1 [Example 135, 6-fluoro-3-(1-{4-[1-(3,3,3-trifluoropropyl)piperidin-4-yl]phenyl}-1H-1,2,3-triazol-4-yl)-1H-indazole]	100 to 1000
OC1CNCCC1c1ccc(-n2cc(-c3n[nH]c4ccccc34)nn2)cc1 (stereo not shown) [Example 137, 4-{4-[4-(1H-indazol-3-yl)-1H-1,2,3-triazol-1-yl]phenyl}piperidin-3-ol hydrochloride]	100 to 1000
CC(C)=Cc1ccc2[nH]nc(-c3cn(-c4ccc(C(=O)N5CCC(N(C)C)CC5)cc4)nn3)c2c1 [Example 138, N,N-dimethyl-1-(4-{4-[5-(2-methylprop-1-en-1-yl)-1H-indazol-3-yl]-1H-1,2,3-triazol-1-yl}benzoyl)piperidin-4-amine]	100 to 1000
